Paper PMC5011342, “A high throughput drug screening assay to identify compounds that promote oligodendrocyte differentiation using acutely dissociated and purified oligodendrocyte precursor cells” (BMC Research Notes, 2016)
pEC50: −log10 of the molar value. Like-named read-outs stand apart in the source and are kept apart here.

Assays:
[1] = system: expanded OPCs; assay: cells; settings: for viability at 0.1 µM / viability at 1 µM / viability at 10 µM: Rattus norvegicus, 72 h
In short: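 Toxicity screen: compounds added at 0.1, 1 and 10 µM to PDGF-AA-expanded OPCs in 96-well plates, 3-day incubation at 37 °C, 10% CO2, then alamarBlue 1:10 for 4 h with fluorescence readout. Results set screening doses of 10/2, 2/0.4 or 0.4/0.08 µM.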

[2] = system: acutely dissociated and purified rat OPCs; assay: Acute OL differentiation assay (MBP expression/cell, immunofluorescent image quantification); assay type: cell-based; settings: for hit in OL differentiation assay, MRF-TMC: ● = confirmed hit in this paper's assay
In short: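 This acute differentiation assay used purified rat OPCs from postnatal day 6–7 pups, seeded into PDL/laminin-coated 96-well plates in differentiation medium lacking PDGF and FGF. Compounds were applied in quadruplicate after a 1–2 h preincubation at 37 °C, 10 % CO2, with 0.1 % DMSO negative and 40 ng/ml T3 positive controls in eight wells. After fixation on DIV4, anti-MBP immunofluorescence images yielded MBP expression/cell.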

[3] = read-out: 0.1 µM (% DMSO), alamarBlue viability, NCC library compound at 0.1 µM, sheet "All Tox data"
[4] = read-out: 1 µM (% DMSO), alamarBlue viability, NCC library compound at 1 µM, sheet "All Tox data"
[5] = read-out: 10 µM (% DMSO), alamarBlue viability, NCC library compound at 10 µM, sheet "All Tox data"
[6] = Rattus norvegicus, test compound at 2 uM, NCC library screen, sheet "All OLga data", relative to quetiapine, read-out: 2 uM (% Quet)
[7] = Rattus norvegicus, test compound at 10 uM, NCC library screen, sheet "All OLga data", relative to quetiapine, read-out: 10 uM (% Quet)
[8] = read-out: 0.1 µM (% DMSO), alamarBlue viability of expanded OPCs, compound at 0.1 µM, sheet All Tox data
[9] = read-out: 1 µM (% DMSO), alamarBlue viability of expanded OPCs, compound at 1 µM, sheet All Tox data
[10] = read-out: 10 µM (% DMSO), alamarBlue viability of expanded OPCs, compound at 10 µM, sheet All Tox data
[11] = Rattus norvegicus, 2 uM test compound, relative to quetiapine, sheet "All OLga data", read-out: OL differentiation, 2 uM (% Quet)
[12] = Rattus norvegicus, 10 uM test compound, relative to quetiapine, sheet "All OLga data", read-out: OL differentiation, 10 uM (% Quet)
[13] = Rattus norvegicus, 0.4 uM test compound, relative to quetiapine, sheet "All OLga data", read-out: OL differentiation, 0.4 uM (% Quet)
[14] = Rattus norvegicus, test compound at 0.4 uM, NCC library screen, sheet "All OLga data", relative to quetiapine, read-out: 0.4 uM (% Quet)
[15] = alamarBlue viability of expanded OPCs, compound at 0.1 µM, relative to DMSO control
[16] = alamarBlue viability of expanded OPCs, compound at 1 µM, relative to DMSO control
[17] = alamarBlue viability of expanded OPCs, compound at 10 µM, relative to DMSO control
[18] = Rattus norvegicus, test compound at 2 uM, MBP expression relative to quetiapine, NCC library screen, sheet "All OLga data", read-out: 2 uM (% Quet)
[19] = Rattus norvegicus, test compound at 10 uM, MBP expression relative to quetiapine, NCC library screen, sheet "All OLga data", read-out: 10 uM (% Quet)

SMILES	viability at 0.1 µM [1, 3] [%]	viability at 1 µM [1, 4] [%]	viability at 10 µM [1, 5] [%]	activation at 2 µM [2, 6] [%]	activation at 10 µM [2, 7] [%]	0.1 µM (% DMSO) [1, 15] [% DMSO]	1 µM (% DMSO) [1, 16] [% DMSO]	10 µM (% DMSO) [1, 17] [% DMSO]	also measured
CCC1(c2ccccc2)C(=O)NCNC1=O [Primidone]	86.9	89.5	82.3	1.4	15.6				
CCCN(CCC)S(=O)(=O)c1ccc(C(=O)O)cc1 [Probenecid]	89.6	94.3	91.5	1.7	-6.4				
CCN(CC)CCNC(=O)c1ccc(N)cc1 [Procainamide]	106	111	120	0.4	19.7				
CCN(CC)CCOC(=O)c1ccc(N)cc1 [Procaine]	121	145	146	-5.2	7.7				
CNNCc1ccc(C(=O)NC(C)C)cc1 [Procarbazine]									viability at 0.1 µM [1, 8]: 82.3%; viability at 1 µM [1, 9]: 87.2%; viability at 10 µM [1, 10]: 96.6%; activation at 2 µM [2, 11]: 0.13%; activation at 10 µM [2, 12]: -31.6%
CN1CCN(CCCN2c3ccccc3Sc3ccc(Cl)cc32)CC1 [Prochlorperazine, reference compound]									viability at 0.1 µM [1, 8]: 122%; viability at 1 µM [1, 9]: 107%; viability at 10 µM [1, 10]: 12.6%; activation at 0.4 µM [2, 13]: 110%; activation at 2 µM [2, 11]: -12.5%; hit in OL differentiation assay, MRF-TMC [2]: ●
OC(CCN1CCCC1)(c1ccccc1)C1CCCCC1 (stereo not drawn) [Procyclidine]	86.1	70.8	56.9	11.1					activation at 0.4 µM [2, 14]: 12%
CC(=O)[C@H]1CC[C@H]2[C@@H]3CCC4=CC(=O)CC[C@]4(C)[C@H]3CC[C@]12C [Progesterone]									viability at 0.1 µM [1, 8]: 88.2%; viability at 1 µM [1, 9]: 102%; viability at 10 µM [1, 10]: 113%; activation at 2 µM [2, 11]: 21.9%; activation at 10 µM [2, 12]: 23.3%
CC(CN1c2ccccc2Sc2ccccc21)N(C)C (stereo not drawn) [Promethazine]						68.4	33.2	19.9	activation at 0.08 µM ([2]; Rattus norvegicus, test compound at 0.08 uM, NCC library screen, sheet "All OLga data", relative to quetiapine, read-out: 0.08 uM (% Quet)): -26.4%; activation at 0.4 µM [2, 14]: -33.6%
CCCNCC(O)COc1ccccc1C(=O)CCc1ccccc1 (stereo not drawn) [Propafenone]				-3.3		76.8	58.7	29.5	activation at 0.4 µM [2, 14]: -15.2%
CC(C)[N+](C)(CCOC(=O)C1c2ccccc2Oc2ccccc21)C(C)C [Propantheline]	91.7	112	148	36.4	90.8				
CC(C)c1cccc(C(C)C)c1O [Propofol]									0.1 µM (% DMSO) ([1]; rat): 93.1 % DMSO; 1 µM (% DMSO) ([1]; rat): 85.9 % DMSO; 10 µM (% DMSO) ([1]; rat): 87.2 % DMSO; activation at 2 µM ([2]; Rattus norvegicus, read-out: 2 uM (% Quet)): -0.9%; activation at 10 µM ([2]; Rattus norvegicus, read-out: 10 uM (% Quet)): 0.36%
CC(C)NCC(O)COc1cccc2ccccc12 (stereo not drawn) [Propranolol]						95.6	79.5	32.7	activation at 0.4 µM ([2]; Rattus norvegicus, test compound at 0.4 uM, MBP expression relative to quetiapine, NCC library screen, sheet "All OLga data", read-out: 0.4 uM (% Quet)): 0.38%; activation at 2 µM [2, 18]: -14.5%
CCCc1cc(=O)[nH]c(=S)[nH]1 [Propylthiouracil]				-0.9	11.7	90.3	95.9	90.8	
CCCOc1ccc(C(=O)OCCN(CC)CC)cc1N [Proxymetacaine, reference compound]	128	179	163	75.8	97.5				pEC50 ([2]; Rattus norvegicus, average EC50 for induction of OL differentiation from independent biological replicates, eight concentrations): 6.00; hit in OL differentiation assay, MRF-TMC [2]: ●
COc1cc(/C=C/c2ccc(O)cc2)cc(OC)c1 [Pterostilbene]									viability at 0.1 µM [1, 8]: 101%; viability at 1 µM [1, 9]: 62.5%; viability at 10 µM [1, 10]: 27.3%; activation at 0.4 µM [2, 13]: -5.7%; activation at 2 µM [2, 11]: -7.7%
NC(=O)c1cnccn1 [Pyrazinamide]				-8.1	-1.1	89.2	94.5	87.7	
CN(C)C(=O)Oc1ccc[n+](C)c1 [Pyridostigmine Bromide]				-0.46	21.5	92.2	86.7	84.4	
CCc1nc(N)nc(N)c1-c1ccc(Cl)cc1 [Pyrimethamine]	100	99.6	66.5	-12.3	-35.3				
OCCOCCN1CCN(C2=Nc3ccccc3Sc3ccccc32)CC1 [Quetiapine hemifumarate]	118	149	117	130	87.7				
CCOC(=O)[C@H](CCc1ccccc1)N[C@@H](C)C(=O)N1Cc2ccccc2C[C@H]1C(=O)O [Quinapril]						95.3	90.0	85.6	activation at 2 µM [2, 18]: 2.2%; activation at 10 µM [2, 19]: -12.2%
C=C[C@H]1C[N@@]2CC[C@H]1C[C@H]2[C@H](O)c1ccnc2ccc(OC)cc12 [Quinine]						93.4	87.0		activation at 2 µM [2, 18]: -22.9%; activation at 10 µM [2, 19]: -65.5%
CN1CCc2cc(Cl)c(O)cc2[C@@H](c2ccccc2)C1 [R(+) SCH 23390]									0.1 µM (% DMSO) ([1]; alamarBlue viability, NCC library compound at 0.1 µM, sheet "All Tox data"): 84.2 % DMSO; 1 µM (% DMSO) ([1]; alamarBlue viability, NCC library compound at 1 µM, sheet "All Tox data"): 78.8 % DMSO; 10 µM (% DMSO) ([1]; alamarBlue viability, NCC library compound at 10 µM, sheet "All Tox data"): 64.1 % DMSO; 0.4 uM (% Quet) ([2]; test compound at 0.4 uM, NCC library screen, sheet "All OLga data", relative to quetiapine): -16.1 % Quet; 2 uM (% Quet) ([2]; test compound at 2 uM, NCC library screen, sheet "All OLga data", relative to quetiapine): -24.3 % Quet
